Assay results published in ChEMBL document CHEMBL3392924, “MMV box selection for compounds with potential use in combination with artemisinin using S. cerevisiae”.

These molecules were tested on Saccharomyces cerevisiae (assay: Assay utilized the disc diffusion method with the observance of a clear zone indicating inhibition of growth. Synthetic complete medium containing 3% glycerol as a carbon source (SCG) was used in each assay. 10 uL of each compound was added to a paper disc which was placed on SCG and SCG+Artemisinin (0.2 uM) plates seeded with 10e6 yeast cells (WC081 strain: Mat a, leu2 delta 0, lys2 delta 0, ura3 delta 0, his3 delta 1, pdr1 delta::HIS3, pdr3 delta::kanMX4, derived from BY4742, regulators of Multi-drug resistance transporters have been deleted to enhance toxicity of compounds). Plates were incubated at 30 degrees C for 5 days and clear zones were measured. Compounds that produced a larger clear zone in the presence of artemisinin was considered to have an additive interaction with artemisinin. Results are reported as diameter of clear zone on SCG+artemisinin plates - diameter of clear zone on SCG plates without artemisinin.). Conditions: in vivo, 120 h.
Assay type: organism-based

Row | SMILES | Diameter of inhibition zone [mm]
1 | CN1CCN(c2ccc(Nc3c4ccccc4nc4ccccc34)cc2)CC1 | 0
2 | CN(C)CCCNc1c2ccccc2nc2ccccc12 | 0
3 | CCN1CCCC1CNc1[nH]cnc2c3cc(Cl)ccc3nc1-2 (centres undefined) | 0
4 | COc1ccc(-c2c(C)nn3c(N)c(C#N)cnc23)cc1OC | 0
5 | CSC1=NC(=Nc2c(C)cccc2C)C2(CCC(C(C)(C)C)CC2)N1c1ccc(Cl)cc1 (centres undefined) | 0
6 | C[n+]1c2ccccc2nc2ccc(NCCO)cc21 | 0
7 | Cc1cc(C)cc(Nc2cc(C)nc3nc(C(F)(F)F)nn23)c1 | 0
8 | O=C(NCC(c1ccsc1)N1CCCCCC1)c1ccc(C(F)(F)F)cc1 (centres undefined) | 0
9 | COc1ccc(-c2cc3c(SCC(=O)Nc4cc(C(F)(F)F)ccc4Cl)nccn3n2)cc1 | 0
10 | Cc1ccc(-c2cc3c(SCC(=O)Nc4cc(C(F)(F)F)ccc4Cl)nccn3n2)cc1 | 0
11 | CCN(CC)CCNc1ncnc2c1[nH]c1ccc(Cl)cc12 | 0
12 | CCOC(=O)c1cnc2ccc(CC)cc2c1O | 0
13 | Cc1ccc(-c2cc3c(nn2)-c2ccccc2C3=O)cc1 | 0
14 | CCN(CC)CCNc1ccnc2cc(Cl)ccc12 | 0
15 | CCCCCC(=O)N1c2ccccc2N=C2CC(c3ccc(OC)c(OC)c3)CC(O)=C2C1c1ccc(C(F)(F)F)cc1 (centres undefined) | 0
16 | Cc1cc(Nc2ccc3ccccc3c2)n2ncnc2n1 | 7
17 | Cc1cc(NCCN2CCCCC2)c2ccc3ccccc3c2n1 | 0
18 | COc1ccc(-n2ccnc2SCC(=O)Nc2cc(C)ccc2C)c(OC)c1 | 0
19 | CCN1CCN(Cc2ccc(NC(=O)c3cc4ccc5cccnc5c4[nH]3)cc2)CC1 | 0
20 | COc1ccc(-c2nc(NC(=O)CS(=O)(=O)c3ccc(F)cc3)sc2C)cc1 | 0
21 | O=C(O)C1Cc2c([nH]c3ccccc23)C(c2ccc(Cl)cc2Cl)N1 (centres undefined) | 0
22 | Cc1ccc(N2C(=O)C3C(C2=O)C2(c4ccccc4)C(=O)C3(c3ccccc3)C(c3ccccc3)=C2c2ccccc2)cc1 (centres undefined) | 0
23 | CCc1c(C)c(=N)c2ccccc2n1C.I | 0
24 | COc1cccc(NC(=O)[C@H](C(C)C)n2c(=O)[nH]c3ccccc3c2=O)c1 | 0
25 | CCOC(=O)c1cn(CC)c2cc(N(C)CCc3ccc(OC)c(OC)c3)c(F)cc2c1=O | 0
26 | CCC(c1ccccc1)c1nn2c(-c3cccs3)nnc2s1 (centres undefined) | 0
27 | CC(C)(C)c1ccc(O)c(CNC2CCCCC2)c1 | 0

Row | SMILES | Diameter of inhibition zone [mm]
28 | O=[N+]([O-])c1ccc(C=NNc2nc3ccccc3[nH]2)cc1 | 0
29 | CCOc1cc2c(cc1OCC)C(c1cc(OC)c(O)cc1Cl)NCC2 (centres undefined) | 0
30 | CC1CN(C(=O)c2sc3ccccc3c2Cl)CC(C)O1 (centres undefined) | 0
31 | CN(C)c1ccc(C=Cc2nc(=O)c3ccccc3o2)cc1 | 0
32 | COc1ccc(C2=C(c3ccc(OC)cc3)C3(c4ccccc4)C(=O)C2(c2ccccc2)C2C(=O)N(c4ccc(C)cc4)C(=O)C23)cc1 (centres undefined) | 0
33 | CCOC(=O)c1c(NC(=O)c2ccccc2)sc2c(O)c(CN(CC)CC)ccc12 | 0
34 | CCOC(=O)C1=C(c2ccccc2)N=c2sc(=Cc3cc(C)n(-c4ccc(F)cc4)c3C)c(=O)n2C1c1cccc(OC)c1OC (centres undefined) | 0
35 | CCC1(C)CC(CCNCc2ccccc2O)(c2ccc(C)cc2)CCO1 (centres undefined) | 0
36 | OC(CNC1CCCCC1)Cn1c2ccccc2c2ccccc21 (centres undefined) | 0
37 | Cc1cc(Nc2ccc(C)c(Cl)c2)n2nc(C(F)(F)F)nc2n1 | 0
38 | COc1cccc(C=Cc2nc(=O)c3ccccc3o2)c1OC | 0
39 | CCCN(CCC)CC(O)COc1ccccc1C(=O)Nc1ccccc1 (centres undefined) | 0
40 | Fc1ccc2[nH]c3c(NCCCN4CCOCC4)ncnc3c2c1 | 0
41 | COc1ccc(C(=O)Nc2nonc2-c2ccc(OC)c(OC)c2)cc1Cl | 0
42 | COc1ccc(C=C2SC(=N)N(c3ccccc3OC)C2=O)cc1 | 0
43 | COc1ccc(NC(=O)C2c3ccccc3C(=O)N(CC(C)C)C2c2cccs2)cc1Cl (centres undefined) | 0
44 | CCOC(=O)c1c(C)n(-c2ccc(Cl)cc2)c2ccc(OC(=O)C=Cc3ccccc3)cc12 | 0
45 | COc1ccc2c(c1)OC(O)(C(F)(F)C(F)(F)F)CC2=O (centres undefined) | 0
46 | C=CC12CCN(CC1)C(C(O)c1ccnc3ccc(OC)cc13)C2.Cl (centres undefined) | 0
47 | Cc1ccc(-c2cc3nc4c(c(O)n3n2)CCCC4)cc1 | 0
48 | Cc1cccc(Nc2nc(N)c3ccccc3n2)c1.Cl | 0
49 | CCn1c(CN2CCN(Cc3ccccc3)CC2)nc2cc(NC(=O)c3cccs3)ccc21 | 0
50 | COc1ccccc1CNC(=O)CCn1c(=O)[nH]c2ccccc2c1=O | 0
51 | c1ccc2cc3c(Nc4ccc(N5CCOCC5)cc4)ccnc3cc2c1 | 0
52 | Cc1cc(C)c2c(c1)OCN(Cc1ccccc1Cl)C2 | 0
53 | COc1cc(OC)c(N(C)C(=O)c2cc3c(s2)-c2ccccc2S(=O)(=O)C3)cc1Cl | 0
54 | COc1ccccc1NC1=C(N2CCCCC2)C(=O)c2ccccc2C1=O | 0

Row | SMILES | Diameter of inhibition zone [mm]
55 | CCOC(=O)c1cn(CC)c2cc(N3CCCCC3)c(F)cc2c1=O | 0
56 | CCCc1cc(O)c2c3c(c(=O)oc2c1)CN(C)CC3 | 0
57 | Cc1cc(NC(=O)C2c3ccccc3C(=O)N(CC(C)C)C2c2cccs2)no1 (centres undefined) | 0
58 | Cl.Oc1ccccc1CNCC12CC3CC(CC(C3)C1)C2 | 0
59 | CNCCCNc1ccnc2cc(Cl)ccc12 | 0
60 | COc1ccccc1CNC(=O)CCn1c(=O)[nH]c2ccsc2c1=O | 0
61 | COc1ccc(Br)cc1C1Nc2ccc3ccccc3c2C2=C1C(=O)CC(c1ccccc1)C2 (centres undefined) | 0
62 | Cc1cc(C=C2SC(=Nc3ccccc3)N(C3CCCC3)C2=O)c(C)n1-c1ccc(Cl)cc1 | 0
63 | CC1CCN(Cc2ccc(NC(=O)c3cc4ccc5cccnc5c4[nH]3)cc2)CC1 | 0
64 | CCOc1ccc(-c2nonc2NC(=O)c2cccc(C)c2)cc1OCC | 0
65 | CCc1ccc(Nc2cc(C)c3ccc(O)cc3n2)cc1.Cl | 0
66 | COc1ccc2c(=O)cc(C(Cl)(Cl)Cl)oc2c1 | 0
67 | CSc1ccccc1C(=O)Nc1nc(-c2ccccn2)cs1 | 3
68 | COc1ccc(-c2nc3cc(Cc4ccc5[nH]c(-c6ccc(OC)cc6)nc5c4)ccc3[nH]2)cc1 | 0
69 | CCOC(=O)c1ccc2[nH]c(-c3ccccc3)cc(=O)c2c1 | 0
70 | Cc1cc(Nc2ccc(Cl)cc2)n2nc(C(F)(F)F)nc2n1 | 0
71 | COc1ccc(C(C)=O)cc1N1C(=O)C2C(C1=O)C1(c3ccccc3)C(=O)C2(c2ccccc2)C(c2ccc(C)cc2)=C1c1ccc(C)cc1 (centres undefined) | 0
72 | CCCCCCOC(=O)C1=C(C)NC(=O)NC1c1ccccc1F (centres undefined) | 0
73 | Cc1ccc(N2C3c4ccccc4N(S(=O)(=O)c4ccc(C)cc4)C2c2ccccc2N3S(=O)(=O)c2ccc(C)cc2)cc1 | 0
74 | CCCc1c(CC)c(=N)c2ccccc2n1C | 0
75 | Cc1ccc(Nc2nc(NCCO)c3ccccc3n2)cc1C | 0
76 | CCOC(=O)c1cnc2c(C)cc(C)cc2c1Nc1ccc(OC)c(OC)c1 | 0
77 | COc1ccc(NC(=O)C2c3ccccc3C(=O)N(CC(C)C)C2c2cccs2)cc1 (centres undefined) | 0
78 | c1ccc(Cn2c(N=Nc3c(Nc4ccccc4)ccc4ccccc34)nc3ccccc32)cc1 | 1
79 | CN(C)c1ccc(C(O)(c2ccc(N(C)C)cc2)c2ccc(N(C)C)cc2)cc1 [METHYLROSANILINE] | 0
